# Measurements reported in ChEMBL document CHEMBL4725268, “Anticonvulsant and analgesic in neuropathic pain activity in a group of new aminoalkanol derivatives” (Bioorg Med Chem Lett, 2020).
# Activity calls are given as the source filed them. The calls are words filed in the database; no cut-off is given here.
# Tests used:
# Staphylococcus aureus [1] = assay: Antimicrobial activity against clinical strain Staphylococcus aureus assessed as reduction in bacterial growth at 0.195 to 100 ug/ml by serial dilution method; assay type: organism-based; conditions: in vivo, dose 0.195-100 µg/ml
# Enterococcus faecalis = assay: Antimicrobial activity against Enterococcus faecalis ATCC 29212 assessed as reduction in bacterial growth at 0.195 to 100 ug/ml by serial dilution method; assay type: organism-based; conditions: in vivo, dose 0.195-100 µg/ml
# Escherichia coli [2] = assay: Antimicrobial activity against Escherichia coli ATCC 25922 assessed as reduction in bacterial growth at 0.195 to 100 ug/ml by serial dilution method; assay type: organism-based; conditions: in vivo, dose 0.195-100 µg/ml
# [3] = Toxicity in ip dosed mouse assessed as motor impairment by rotarod test; assay type: organism-based; conditions: in vivo
# [4] = Toxicity in mouse assessed as lethality at 70 mg/kg, ip; assay type: organism-based; conditions: in vivo
# [5] = Protection index, ratio of TD50 for toxicity in ip dosed mouse to ED50 for anticonvulsant activity in ip dosed mouse; assay type: organism-based; conditions: in vivo, read-out: PI
# Escherichia coli [6] = assay: Antimicrobial activity against Escherichia coli ATCC 35218 assessed as reduction in bacterial growth at 0.195 to 100 ug/ml by serial dilution method; assay type: organism-based; conditions: in vivo, dose 0.195-100 µg/ml
# [7] = Antimicrobial activity against clinical strain Bifidobacterium assessed as reduction in bacterial growth at 0.195 to 100 ug/ml by disk diffusion method; conditions: dose 0.195-100 µg/ml
# Staphylococcus aureus [8] = assay: Antimicrobial activity against Staphylococcus aureus ATCC 25923 assessed as reduction in bacterial growth at 0.195 to 100 ug/ml by serial dilution method; assay type: organism-based; conditions: in vivo, dose 0.195-100 µg/ml
# Clostridioides difficile = assay: Antimicrobial activity against clinical strain Clostridium difficile assessed as reduction in bacterial growth at 0.195 to 100 ug/ml by disk diffusion method; assay type: organism-based; conditions: in vivo, dose 0.195-100 µg/ml
# Hoylesella loescheii = assay: Antimicrobial activity against Prevotella loescheii ATCC 15930 assessed as reduction in bacterial growth at 0.195 to 100 ug/ml by disk diffusion method; assay type: organism-based, DSM 19665 = JCM 12249 = ATCC 15930; conditions: in vivo, dose 0.195-100 µg/ml
# Salmonella enterica = assay: Antimicrobial activity against Salmonella enterica ATCC 51957 assessed as reduction in bacterial growth at 0.195 to 100 ug/ml by serial dilution method; assay type: organism-based; conditions: in vivo, dose 0.195-100 µg/ml
# [9] = target: T1, 5-hydroxytryptamine receptor 1A (Homo sapiens) (UniProt P08908); assay: Binding affinity to 5-HT1A (unknown origin) at 10^-5 M; conditions: dose 1.0 10^-5M
# T1 sequence (whole entry): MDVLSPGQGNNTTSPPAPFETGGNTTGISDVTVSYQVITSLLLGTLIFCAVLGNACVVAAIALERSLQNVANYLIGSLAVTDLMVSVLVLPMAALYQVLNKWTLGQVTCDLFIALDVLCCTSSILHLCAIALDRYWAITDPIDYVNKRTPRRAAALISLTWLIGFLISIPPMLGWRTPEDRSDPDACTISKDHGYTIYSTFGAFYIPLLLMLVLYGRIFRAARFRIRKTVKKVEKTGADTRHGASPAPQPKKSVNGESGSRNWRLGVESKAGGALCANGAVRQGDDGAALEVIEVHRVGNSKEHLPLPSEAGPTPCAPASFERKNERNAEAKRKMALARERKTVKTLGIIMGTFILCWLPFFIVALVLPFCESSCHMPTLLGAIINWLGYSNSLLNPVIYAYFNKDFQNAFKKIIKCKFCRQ
# [10] = Toxicity in mouse assessed as lethality at 50 mg/kg, ip; assay type: organism-based; conditions: in vivo
# Mus musculus = assay: Anticonvulsant activity in ip dosed mouse assessed as protection against current-induced seizure by maximal electroshock seizure test; assay type: functional
# Bacteroides fragilis = assay: Antimicrobial activity against Bacteroides fragilis ATCC 25285 assessed as reduction in bacterial growth at 0.195 to 100 ug/ml by disk diffusion method; assay type: organism-based; conditions: in vivo, dose 0.195-100 µg/ml
structure (smiles),measurement,setting,value
Cc1ccc(OCCCCN[C@H](C)CO)c(C)c1,Activity,Staphylococcus aureus [1],Non-Toxic
same,Activity,Enterococcus faecalis,Non-Toxic
same,Activity,Escherichia coli [2],Non-Toxic
same,TD50,[3],136 mg/kg
same,Activity,[4],Non-Toxic
same,selectivity ratio,[5],2.59
same,Activity,Escherichia coli [6],Non-Toxic
same,Activity,[7],Non-Toxic
same,Activity,Staphylococcus aureus [8],Non-Toxic
same,Activity,Clostridioides difficile,Non-Toxic
same,Activity,Hoylesella loescheii,Non-Toxic
same,Activity,Salmonella enterica,Non-Toxic
same,Activity,[9],inactive
same,Activity,[10],Non-Toxic
same,ED50,Mus musculus,52.5 mg/kg
same,Activity,Bacteroides fragilis,Non-Toxic
